Measured values as given in patent publication US12162890B2 (Novartis AG, priority 2015, dated 2024).

Target: HEK293 cells with stable expression of the GRIN1 gene and tetracycline-inducible expression of the GRIN2B gene (NMDA receptor, NR2B) (Homo sapiens, UniProt Q13224)
Assay: Fluo-8 Ca2+ flux assay: reversal of Ro 25-6981-mediated suppression of the Ca2+ response to co-agonist (glutamate/glycine); further: test concentration or dose not given here
Format: cell-based
Details: reversal of the Ro 25-6981 suppression of the Ca2+ response to co-agonist (glutamate/glycine)

Chain of HEK293 cells with stable expression of the GRIN1 gene and tetracycline-inducible expression of the GRIN2B gene (NMDA receptor, NR2B) (Q13224 27-1484, other chains not shown): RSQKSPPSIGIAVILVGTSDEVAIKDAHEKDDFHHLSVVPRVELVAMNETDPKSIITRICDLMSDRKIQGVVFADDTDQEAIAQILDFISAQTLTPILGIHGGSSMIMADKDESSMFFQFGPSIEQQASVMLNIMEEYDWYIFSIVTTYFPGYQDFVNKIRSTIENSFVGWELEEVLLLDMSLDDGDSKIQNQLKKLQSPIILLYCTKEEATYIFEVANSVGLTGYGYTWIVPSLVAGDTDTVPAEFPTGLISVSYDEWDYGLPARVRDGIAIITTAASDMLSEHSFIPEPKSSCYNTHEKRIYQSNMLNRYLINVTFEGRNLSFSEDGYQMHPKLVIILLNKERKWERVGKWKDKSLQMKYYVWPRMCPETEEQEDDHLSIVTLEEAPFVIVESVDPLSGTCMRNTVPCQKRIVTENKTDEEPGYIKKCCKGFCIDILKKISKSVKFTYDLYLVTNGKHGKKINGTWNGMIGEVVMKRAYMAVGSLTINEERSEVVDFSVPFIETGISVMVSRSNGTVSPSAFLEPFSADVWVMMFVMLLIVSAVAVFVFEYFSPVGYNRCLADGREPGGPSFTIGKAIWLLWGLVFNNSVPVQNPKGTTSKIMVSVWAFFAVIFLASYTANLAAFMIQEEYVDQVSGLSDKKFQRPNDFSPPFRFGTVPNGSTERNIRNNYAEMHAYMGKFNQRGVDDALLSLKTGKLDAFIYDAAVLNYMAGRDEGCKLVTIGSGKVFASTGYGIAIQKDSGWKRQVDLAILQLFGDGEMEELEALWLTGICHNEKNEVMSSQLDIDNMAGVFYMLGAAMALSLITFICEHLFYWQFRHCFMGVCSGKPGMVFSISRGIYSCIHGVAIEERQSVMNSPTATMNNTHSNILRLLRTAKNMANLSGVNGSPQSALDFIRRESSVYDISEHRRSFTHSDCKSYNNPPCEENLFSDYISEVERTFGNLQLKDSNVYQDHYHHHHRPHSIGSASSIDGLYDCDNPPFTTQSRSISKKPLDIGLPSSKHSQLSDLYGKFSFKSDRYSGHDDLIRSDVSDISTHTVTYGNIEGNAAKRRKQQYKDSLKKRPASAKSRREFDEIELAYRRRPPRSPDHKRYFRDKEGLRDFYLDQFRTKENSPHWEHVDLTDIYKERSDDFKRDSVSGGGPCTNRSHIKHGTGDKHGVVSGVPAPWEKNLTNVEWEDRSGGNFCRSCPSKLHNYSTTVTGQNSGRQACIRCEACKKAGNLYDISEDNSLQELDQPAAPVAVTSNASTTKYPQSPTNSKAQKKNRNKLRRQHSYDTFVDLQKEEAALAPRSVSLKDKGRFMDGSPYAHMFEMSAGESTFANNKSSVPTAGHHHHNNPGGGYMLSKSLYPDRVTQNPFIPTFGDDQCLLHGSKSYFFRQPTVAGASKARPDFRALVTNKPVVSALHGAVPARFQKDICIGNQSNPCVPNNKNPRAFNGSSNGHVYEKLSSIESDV

| Compound | Response Recovered (%) |
| --- | --- |
| O=C(Cn1ccc2cccc(-c3ccc(Cl)c(F)c3)c2c1=O)N1CCCC1 [Example 307, 8-(4-chloro-3-fluorophenyl)-2-(2-oxo-2-(pyrrolidin-1-yl)ethyl)isoquinolin-1(2H)-one] | 24% |
| O=C(Cn1ccc2cccc(-c3ccc(Cl)c(Cl)c3)c2c1=O)N1CCCC1 [Example 308] | 78% |
| O=C(Cn1ccc2cccc(-c3ccc(F)c(Cl)c3)c2c1=O)N1CC(F)(F)C1 [Example 309, 8-(3-chloro-4-fluorophenyl)-2-(2-(3,3-difluoroazetidin-1-yl)-2-oxoethyl)isoquinolin-1(2H)-one] | 41% |
| O=C(Cn1ccc2ccc(-c3ccc(Cl)c(C(F)(F)F)c3)cc2c1=O)N1CCCC1 [Example 310, 7-(4-chloro-3-(trifluoromethyl)phenyl)-2-(2-oxo-2-(pyrrolidin-1-yl)ethyl)isoquinolin-1(2H)-one] | 3% |
| O=C(Cn1ccc2ccc(-c3ccc(Cl)c(C(F)(F)F)c3)cc2c1=O)N1CCC(F)C1 (stereo not drawn) [Example 311, 7-(4-chloro-3-(trifluoromethyl)phenyl)-2-(2-(3-fluoropyrrolidin-1-yl)-2-oxoethyl)isoquinolin-1(2H)-one] | 6% |
| O=C(Cn1ccc2ccc(-c3ccc(Cl)c(C(F)(F)F)c3)cc2c1=O)N1CC(F)(F)C1 [Example 312, 7-(4-chloro-3-(trifluoromethyl)phenyl)-2-(2-(3,3-difluoroazetidin-1-yl)-2-oxoethyl)isoquinolin-1(2H)-one] | 3% |
| O=C(Cn1ccc2ccc(-c3ccc(F)c(C(F)(F)F)c3)cc2c1=O)N1CCC(F)C1 (stereo not drawn) [Example 314, 7-(4-fluoro-3-(trifluoromethyl)phenyl)-2-(2-(3-fluoropyrrolidin-1-yl)-2-oxoethyl)isoquinolin-1(2H)-one] | 8% |
| O=C(Cn1ccc2ccc(-c3ccc(Cl)c(Cl)c3)cc2c1=O)N1CCC(F)C1 (stereo not drawn) [Example 315, 7-(3,4-dichlorophenyl)-2-(2-(3-fluoropyrrolidin-1-yl)-2-oxoethyl)isoquinolin-1(2H)-one] | 2% |
| O=C(Cn1ccc2ccc(-c3ccc(Cl)c(Cl)c3)cc2c1=O)N1CCCC1 [Example 316, 7-(3,4-dichlorophenyl)-2-(2-oxo-2-(pyrrolidin-1-yl)ethyl)isoquinolin-1(2H)-one] | 2% |
| O=C(Cn1cnc2[nH]nc(-c3ccc(Cl)c(C(F)(F)F)c3)c2c1=O)N1CCCC1 [Example 317, 3-(4-chloro-3-(trifluoromethyl)phenyl)-5-(2-oxo-2-(pyrrolidin-1-yl)ethyl)-1H-pyrazolo[3,4-d]pyrimidin-4(5H)-one] | 8% |
| O=C(Cn1cnc2[nH]nc(-c3ccc(Cl)c(C(F)(F)F)c3)c2c1=O)N1CCC(F)C1 (stereo not drawn) [Example 318, 3-(4-chloro-3-(trifluoromethyl)phenyl)-5-(2-(3-fluoropyrrolidin-1-yl)-2-oxoethyl)-1H-pyrazolo[3,4-d]pyrimidin-4(5H)-one] | 26% |
| O=C(Cn1cnc2[nH]nc(-c3ccc(Cl)c(F)c3)c2c1=O)N1CCCC1 [Example 319, 3-(4-chloro-3-fluorophenyl)-5-(2-oxo-2-(pyrrolidin-1-yl)ethyl)-1H-pyrazolo[3,4-d]pyrimidin-4(5H)-one] | 4% |
| O=C(Cn1cnc2[nH]nc(-c3ccc(Cl)c(C(F)(F)F)c3)c2c1=O)N1CC(F)(F)C1 [Example 320, 3-(4-Chloro-3-trifluoromethyl-phenyl)-5-[2-(3,3-difluoro-azetidin-1-yl)-2-oxo-ethyl]-1,5-dihydro-pyrazolo[3,4-d]pyrimidin-4-one] | 9% |
| O=C(Cn1ccn2ncc(-c3ccc(F)c(C(F)(F)F)c3)c2c1=O)N1CCC(F)C1 (stereo not drawn) [Example 321, 3-(4-fluoro-3-(trifluoromethyl)phenyl)-5-(2-(3-fluoropyrrolidin-1-yl)-2-oxoethyl)pyrazolo[1,5-a]pyrazin-4(5H)-one] | 46% |
| O=C(Cn1ccn2ncc(-c3ccc(F)c(C(F)(F)F)c3)c2c1=O)N1CC(F)C1 [Example 322, 3-(4-fluoro-3-(trifluoromethyl)phenyl)-5-(2-(3-fluoroazetidin-1-yl)-2-oxoethyl)pyrazolo[1,5-a]pyrazin-4(5H)-one] | 33% |
| O=C(Cn1ccn2ncc(-c3ccc(F)c(C(F)(F)F)c3)c2c1=O)N1CCCC1 [Example 323, 3-(4-fluoro-3-(trifluoromethyl)phenyl)-5-(2-oxo-2-(pyrrolidin-1-yl)ethyl)pyrazolo[1,5-a]pyrazin-4(5H)-one] | 40% |
| O=C(Cn1ccn2ncc(-c3ccc(F)c(C(F)(F)F)c3)c2c1=O)N1CC(F)(F)C1 [Example 324, 5-(2-(3,3-difluoroazetidin-1-yl)-2-oxoethyl)-3-(4-fluoro-3-(trifluoromethyl)phenyl)pyrazolo[1,5-a]pyrazin-4(5H)-one] | 51% |

| Compound | Response Recovered (%) |
| --- | --- |
| O=C(Cn1ccn2ncc(-c3ccc(Cl)c(Cl)c3)c2c1=O)N1CC(F)(F)C1 [Example 325, 3-(3,4-dichlorophenyl)-5-(2-(3,3-difluoroazetidin-1-yl)-2-oxoethyl)pyrazolo[1,5-a]pyrazin-4(5H)-one] | 50% |
| O=C(Cn1ccn2ncc(-c3ccc(Cl)c(Cl)c3)c2c1=O)N1CCCC1 [Example 326, 3-(3,4-dichlorophenyl)-5-(2-oxo-2-(pyrrolidin-1-yl)ethyl)pyrazolo[1,5-a]pyrazin-4(5H)-one] | 29% |
| O=C(Cn1ccn2ncc(-c3ccc(Cl)c(Cl)c3)c2c1=O)N1CCC(F)C1 (stereo not drawn) [Example 327, 3-(3,4-dichlorophenyl)-5-(2-(3-fluoropyrrolidin-1-yl)-2-oxoethyl)pyrazolo[1,5-a]pyrazin-4(5H)-one] | 54% |
| O=C(Cn1ccn2ncc(-c3ccc(F)c(Cl)c3)c2c1=O)N1CC(F)(F)C1 [Example 328, 3-(3-chloro-4-fluorophenyl)-5-(2-(3,3-difluoroazetidin-1-yl)-2-oxoethyl)pyrazolo[1,5-a]pyrazin-4(5H)-one] | 29% |
| CC1(F)CN(C(=O)Cn2ccn3ncc(-c4ccc(F)c(Cl)c4)c3c2=O)C1 [Example 329, 3-(3-chloro-4-fluorophenyl)-5-(2-(3-fluoro-3-methylazetidin-1-yl)-2-oxoethyl)pyrazolo[1,5-a]pyrazin-4(5H)-one] | 110% |
| O=C(Cn1nnc2scc(-c3ccc(F)c(Cl)c3)c2c1=O)N1CCCC1 [Example 330, 5-(3-chloro-4-fluorophenyl)-3-(2-oxo-2-(pyrrolidin-1-yl)ethyl)thieno[2,3-d][1,2,3]triazin-4(3H)-one] | 6% |
| O=C(Cn1nnc2scc(-c3ccc(Cl)c(C(F)(F)F)c3)c2c1=O)N1CCCC1 [Example 331, 5-[4-chloro-3-(trifluoromethyl)phenyl]-3-[2-oxo-2-(pyrrolidin-1-yl)ethyl]-3H,4H-thieno[2,3-d][1,2,3]triazin-4-one] | 8% |
| O=C(Cn1nnc2scc(-c3ccc(Cl)c(C(F)(F)F)c3)c2c1=O)N1CCC(F)C1 (stereo not drawn) [Example 332, 5-(4-chloro-3-(trifluoromethyl)phenyl)-3-(2-(3-fluoropyrrolidin-1-yl)-2-oxoethyl)thieno[2,3-d][1,2,3]triazin-4(3H)-one] | 20% |
| O=C(Cn1nnc2scc(-c3ccc(Cl)c(C(F)(F)F)c3)c2c1=O)N1CC(F)(F)C1 [Example 333, 5-(4-chloro-3-(trifluoromethyl)phenyl)-3-(2-(3,3-difluoroazetidin-1-yl)-2-oxoethyl)thieno[2,3-d][1,2,3]triazin-4(3H)-one] | 13% |
| O=C(Cn1nnc2scc(-c3ccc(Cl)c(C(F)(F)F)c3)c2c1=O)N1CCCC1C(F)(F)F (stereo not drawn) [Example 334, 5-(4-chloro-3-(trifluoromethyl)phenyl)-3-(2-oxo-2-(2-(trifluoromethyl)pyrrolidin-1-yl)ethyl)thieno[2,3-d][1,2,3]triazin-4(3H)-one] | 2% |
| O=C(Cn1ncc2scc(-c3ccc(Cl)c(C(F)(F)F)c3)c2c1=O)N1CCCC1 [Example 335, 3-(4-chloro-3-(trifluoromethyl)phenyl)-5-(2-oxo-2-(pyrrolidin-1-yl)ethyl)thieno[2,3-d]pyridazin-4(5H)-one] | 23% |
| O=C(Cn1ncc2scc(-c3ccc(Cl)c(F)c3)c2c1=O)N1CCCC1 [Example 336, 3-(4-chloro-3-fluorophenyl)-5-(2-oxo-2-(pyrrolidin-1-yl)ethyl)thieno[2,3-d]pyridazin-4(5H)-one] | 3% |
| O=C(Cn1ncc2scc(-c3ccc(F)c(Cl)c3)c2c1=O)N1CCCC1 [Example 337, 3-(3-chloro-4-fluorophenyl)-5-(2-oxo-2-(pyrrolidin-1-yl)ethyl)thieno[2,3-d]pyridazin-4(5H)-one] | 7% |
| O=C(Cn1ncc2scc(-c3ccc(Cl)c(Cl)c3)c2c1=O)N1CCCC1 [Example 338, 3-(3,4-dichlorophenyl)-5-(2-oxo-2-(pyrrolidin-1-yl)ethyl)thieno[2,3-d]pyridazin-4(5H)-one] | 15% |
| O=C(Cn1ncc2scc(-c3ccc(Cl)c(C(F)(F)F)c3)c2c1=O)N1CC(F)(F)C1 [Example 339, 3-(4-chloro-3-(trifluoromethyl)phenyl)-5-(2-(3,3-difluoroazetidin-1-yl)-2-oxoethyl)thieno[2,3-d]pyridazin-4(5H)-one] | 20% |
| O=C(Cn1ncc2scc(-c3ccc(Cl)c(F)c3)c2c1=O)N1CC(F)(F)C1 [Example 340, 3-(4-chloro-3-fluorophenyl)-5-(2-(3,3-difluoroazetidin-1-yl)-2-oxoethyl)thieno[2,3-d]pyridazin-4(5H)-one] | 3% |
